Results taken from the NIST ThermoML archive (doi:10.1021/je201297j).
± gives the expanded uncertainty stated by the source.

Conditions: Liquid, Vibrating wire viscometry

COC [dimethyl ether]
Conditions	viscosity [mPa·s]
243.15 K	0.2217 ± 0.0062
248.16 K	0.2097 ± 0.006
253.15 K	0.1988 ± 0.0058
258.14 K	0.1889 ± 0.0057
263.15 K	0.1796 ± 0.0055
268.14 K	0.1709 ± 0.0054
273.14 K	0.1628 ± 0.0052
278.13 K	0.1552 ± 0.0051
283.14 K	0.1479 ± 0.005
288.14 K	0.1414 ± 0.0049
293.14 K	0.1351 ± 0.0048
298.14 K	0.129 ± 0.0047
303.14 K	0.124 ± 0.0047
308.14 K	0.1181 ± 0.0046
313.14 K	0.1129 ± 0.0045
318.12 K	0.108 ± 0.0045
323.12 K	0.1031 ± 0.0044
328.12 K	0.09861 ± 0.0044
333.13 K	0.09419 ± 0.0043
338.13 K	0.08983 ± 0.0043
343.13 K	0.08575 ± 0.0042
348.13 K	0.08166 ± 0.0042
353.12 K	0.07777 ± 0.0042
358.13 K	0.07388 ± 0.0042
363.13 K	0.07014 ± 0.0041
368.13 K	0.06636 ± 0.0041
373.13 K	0.06256 ± 0.0041

viscosity [mPa·s]
Conditions	5000 kPa	10000 kPa	15000 kPa	20000 kPa	25000 kPa	30000 kPa
253.15 K	0.2044 ± 0.0059	0.2125 ± 0.006	0.2199 ± 0.0062	0.2314 ± 0.0064	0.2421 ± 0.0066	0.2541 ± 0.0068
263.15 K	0.1836 ± 0.0056	0.1911 ± 0.0057	0.1989 ± 0.0058	0.2068 ± 0.006	0.2156 ± 0.0061	0.2252 ± 0.0063
273.14 K	0.1669 ± 0.0053	0.1742 ± 0.0054	0.1816 ± 0.0056	0.189 ± 0.0057	0.196 ± 0.0058	0.2035 ± 0.0059
283.14 K	0.1521 ± 0.0051	0.159 ± 0.0052	0.1657 ± 0.0053	0.1724 ± 0.0054	0.1791 ± 0.0055	0.1857 ± 0.0056
293.14 K	0.1395 ± 0.0049	0.1455 ± 0.005	0.1527 ± 0.0051	0.1586 ± 0.0052	0.1652 ± 0.0053	0.1709 ± 0.0054
303.14 K	0.1276 ± 0.0047	0.134 ± 0.0048	0.1401 ± 0.0049	0.1464 ± 0.005	0.1521 ± 0.0051	0.1584 ± 0.0052
313.14 K	0.1165 ± 0.0046	0.1235 ± 0.0047	0.1294 ± 0.0048	0.1355 ± 0.0049	0.1415 ± 0.0049	0.1473 ± 0.005
323.12 K	0.107 ± 0.0045	0.1139 ± 0.0046	0.1199 ± 0.0046	0.1262 ± 0.0047	0.1316 ± 0.0048	0.137 ± 0.0049
333.12 K	0.09797 ± 0.0044	0.1049 ± 0.0044	0.1111 ± 0.0045	0.117 ± 0.0046	0.1231 ± 0.0047	0.1284 ± 0.0047
343.13 K	0.08951 ± 0.0043	0.09664 ± 0.0043	0.1036 ± 0.0044	0.1096 ± 0.0045	0.1151 ± 0.0046	0.1204 ± 0.0046
353.12 K	0.08119 ± 0.0042	0.08899 ± 0.0043	0.0959 ± 0.0043	0.1017 ± 0.0044	0.1075 ± 0.0045	0.1127 ± 0.0045
363.13 K	–	0.08181 ± 0.0042	0.08877 ± 0.0043	0.09499 ± 0.0043	0.101 ± 0.0044	0.1066 ± 0.0045
373.13 K	0.06522 ± 0.0042	0.07506 ± 0.0042	0.08237 ± 0.0042	0.08883 ± 0.0043	0.09475 ± 0.0043	0.09991 ± 0.0044
